US9732075B2, “Benzimidazole-proline derivatives” (IDORSIA PHARMACEUTICALS LTD, priority 2012, dated 2017)
pIC50: −log10 of the molar value.

Key:
[1] = molecular target: human orexin-2 receptor (Homo sapiens (Human), UniProt O43614); test: In vitro assay: intracellular calcium measurements (FLIPR), antagonistic activity; format: cell-based; conditions: CHO cells expressing human orexin-2 receptor, orexin-A agonist, geometric mean, read-out: IC50 Ox2
Summary of the method: (§1)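 In this FLIPR calcium assay, antagonists were given 120 min on CHO cells with human OX1 or OX2 receptor before orexin-A (3 nM final) was added. Peak fluorescence was measured at 1 s intervals against the uninhibited agonist peak, and IC50s were averaged geometrically.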

[2] = molecular target: human orexin-1 receptor (Homo sapiens (Human), UniProt O43613); test: as above; format: cell-based; conditions: CHO cells expressing human orexin-1 receptor, orexin-A agonist, geometric mean, read-out: IC50 Ox1
Summary of the method: as §1

Sequence of human orexin-2 receptor (O43614 whole entry): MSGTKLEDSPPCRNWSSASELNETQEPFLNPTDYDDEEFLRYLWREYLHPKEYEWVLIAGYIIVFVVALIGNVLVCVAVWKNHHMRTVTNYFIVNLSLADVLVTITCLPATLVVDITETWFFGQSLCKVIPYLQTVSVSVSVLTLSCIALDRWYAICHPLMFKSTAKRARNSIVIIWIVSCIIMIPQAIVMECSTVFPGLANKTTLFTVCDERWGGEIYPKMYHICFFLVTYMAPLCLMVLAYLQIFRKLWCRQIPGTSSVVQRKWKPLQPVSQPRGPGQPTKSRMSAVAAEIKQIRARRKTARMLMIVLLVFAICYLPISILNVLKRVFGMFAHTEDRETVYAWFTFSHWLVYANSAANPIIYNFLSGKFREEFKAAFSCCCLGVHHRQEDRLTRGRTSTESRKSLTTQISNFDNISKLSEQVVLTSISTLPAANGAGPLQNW
Sequence of human orexin-1 receptor (O43613 whole entry): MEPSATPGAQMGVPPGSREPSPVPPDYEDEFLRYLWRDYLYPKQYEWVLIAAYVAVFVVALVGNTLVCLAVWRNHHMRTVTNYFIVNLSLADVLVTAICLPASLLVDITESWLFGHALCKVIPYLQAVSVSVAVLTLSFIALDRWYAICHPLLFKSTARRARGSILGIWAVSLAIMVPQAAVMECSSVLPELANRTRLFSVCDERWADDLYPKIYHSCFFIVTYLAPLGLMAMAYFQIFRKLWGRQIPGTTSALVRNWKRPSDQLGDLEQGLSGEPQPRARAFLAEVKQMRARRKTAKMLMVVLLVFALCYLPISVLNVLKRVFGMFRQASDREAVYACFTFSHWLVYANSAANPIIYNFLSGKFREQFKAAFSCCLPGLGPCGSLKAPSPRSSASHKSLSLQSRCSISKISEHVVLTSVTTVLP

Structure (SMILES)	pIC50 [1]	pIC50 [2]
Cc1ccc(-c2ncccn2)c(C(=O)N2CCC[C@@]2(C)c2nc3cccc(C)c3[nH]2)c1 [Ex. 5.278]	7.51	7.66
C=C1CC(c2nc3c(C)c(C)ccc3[nH]2)N(C(=O)c2nc(C3CC3)sc2-c2cccc(C)c2)C1 (racemic) [Ex. 6.92]	8.70	8.40
C[C@@]1(c2nc3cc(C(F)(F)F)ccc3[nH]2)CCCN1C(=O)c1cc(OC(F)(F)F)ccc1-n1nccn1 [Ex. 5.173]	5.94	6.54
Cc1c(Cl)ccc2[nH]c([C@]3(C)CCCN3C(=O)c3nc(-c4cccc(C#N)c4)sc3-c3ccc(F)cc3)nc12 [Ex. 5.255]	6.84	9.00
Cc1ccc(C(=O)N2CCC[C@@]2(C)c2nc3c(F)c(F)ccc3[nH]2)c(-n2nccn2)c1 [Ex. 5.202]	6.03	6.64
Cc1ccc(C(=O)N2CC[C@H](C)[C@H]2c2nc3cc(Cl)c(C)cc3[nH]2)c(-c2ccccc2)c1 [Ex. 4.111]	6.96	8.70
C=C1C[C@@H](c2nc3cc(OC)ccc3[nH]2)N(C(=O)c2nc(C3CC3)sc2-c2cccc(Br)c2)C1 [Ex. 6.28]	7.82	7.70
C=C1C[C@@H](c2nc3cccc(C)c3[nH]2)N(C(=O)c2nc(C)sc2-c2cc(C)cc(C)c2)C1 [Ex. 6.107]	7.80	7.13
C=C1C[C@@H](c2nc3cc(Cl)c(C(F)(F)F)cc3[nH]2)N(C(=O)c2nc(C)ccc2-n2cccn2)C1 [Ex. 6.189]	7.60	7.33
Cc1c(Cl)ccc2[nH]c([C@@H]3[C@@H](C)CCN3C(=O)c3cc(Cl)ccc3-c3ccccc3)nc12 [Ex. 4.162]	6.52	8.70
CSc1cccc2nc([C@@H]3CCCN3C(=O)c3cnc(C)nc3-c3ccc(Br)c(Cl)c3)[nH]c12 [Ex. 1.90]	7.85	8.70
C=C1CN(C(=O)c2nc(C)sc2-c2ccccc2)C(C)(c2nc3cc(OC)ccc3[nH]2)C1 (racemic) [Ex. 6.154]	7.42	7.49
Cc1ccc(-c2nc(C(=O)N3CCC[C@@]3(C)c3nc4cc(Cl)c(C(F)(F)F)cc4[nH]3)c(-c3ccc(F)cc3)s2)cc1 [Ex. 5.288]	5.87	7.42
Cc1nc(C(=O)N2CCCC2c2nc3cc(Br)ccc3[nH]2)c(-c2ccccc2)s1 (stereo not shown) [Ex. 1.120]	6.25	6.83
Cc1c(Cl)ccc2nc([C@]3(C)CCCN3C(=O)c3cc(F)ccc3-c3cccnc3)[nH]c12 [Ex. 5.220]	6.60	7.01
CSc1cccc2nc([C@@H]3CCCN3C(=O)c3cncnc3-c3cc(Cl)cc(Cl)c3)[nH]c12 [Ex. 1.89]	6.74	7.41
CO[C@@H]1C[C@@H](c2nc3ccc(Cl)c(C)c3[nH]2)N(C(=O)c2nc(C)sc2-c2ccc(C)cc2)C1 [Ex. 3.36]	8.05	8.30
C=C1C[C@@H](c2nc3ccc(Cl)c(C)c3[nH]2)N(C(=O)c2nc(C)ccc2-n2nccn2)C1 [Ex. 6.127]	8.40	7.77
COc1ccc(-n2nccn2)c(C(=O)N2CCC[C@@]2(C)c2nc3c(C)c(Cl)ccc3n2C)c1 [Ex. 7.23]	8.52	9.00
C=C1CC(c2nc3cc4ccccc4cc3[nH]2)N(C(=O)c2cc(C)sc2-c2ccc(C)c(C)c2)C1 (stereo not shown) [Ex. 6.85]	7.38	6.97

Structure (SMILES)	pIC50 [1]	pIC50 [2]
Cc1ccc(-c2ccccc2)c(C(=O)N2CC[C@H](C)[C@H]2c2nc3cc(Cl)c(C)cc3[nH]2)c1 [Ex. 4.116]	6.70	8.22
COc1cc2nc([C@@H]3[C@@H](C)CCN3C(=O)c3ccc(C)cc3-n3nccn3)[nH]c2cc1OC [Ex. 4.46]	7.29	7.85
Cc1ccccc1-c1nc(C(=O)N2CCC[C@@]2(C)c2nc3c(C)c(Cl)ccc3[nH]2)c(-c2ccc(F)cc2)s1 [Ex. 5.228]	5.69	7.25
CO[C@H]1CN(C(=O)c2cc(C(F)(F)F)ccc2-n2nccn2)C(C)(c2nc3c(C)c(Cl)ccc3[nH]2)C1 (stereo partly shown) [Ex. 3.50]	6.60	6.63
Cc1nc(C(=O)N2CCC[C@H]2c2nc3c(O)cccc3[nH]2)c(-c2cccc(Cl)c2)s1 [Ex. 1.12]	6.46	6.56
CCn1c([C@]2(C)CCCN2C(=O)c2cc(C)ccc2-c2ccc(C)cc2)nc2cc(C)c(C)cc21 [Ex. 7.38]	7.52	8.10
C=C1C[C@@H](c2nc3cc(C(C)(C)C)ccc3[nH]2)N(C(=O)c2nc(C)ccc2-n2nccn2)C1 [Ex. 6.174]	7.82	6.63
COc1cc(C(=O)N2C[C@H](OC)CC2(C)c2nc3c(C)c(Cl)ccc3[nH]2)c(-n2nccn2)cc1OC (stereo partly shown) [Ex. 3.52]	7.57	7.55
Cc1c(Cl)ccc2[nH]c([C@]3(C)CCCN3C(=O)c3nc(-c4ccccc4F)sc3-c3ccc(F)cc3)nc12 [Ex. 5.233]	6.58	8.30
Cc1nc(C(=O)N2CCCC2c2nc3c(C)cccc3[nH]2)c(-c2ccccc2)s1 (stereo not shown) [Ex. 1.123]	7.15	6.83
Cc1nc(C(=O)N2CC(F)(F)C[C@H]2c2nc3c(C)cccc3[nH]2)c(-c2ccccc2)s1 [Ex. 2.4]	6.88	6.37
COc1cc2nc([C@]3(C)CCCN3C(=O)c3cc(C)ccc3-c3ncccn3)[nH]c2cc1OC [Ex. 5.280]	7.80	7.44
C=C1C[C@@H](c2nc3ccc(Cl)c(C)c3[nH]2)N(C(=O)c2nc(C)sc2-c2ccc(F)cc2)C1 [Ex. 6.118]	8.40	7.68
CSc1ccc2nc([C@@H]3CCCN3C(=O)c3ccccc3-c3ccc(C)c(C)c3)[nH]c2c1 [Ex. 1.46]	7.89	6.89
COc1cc2nc([C@@H]3[C@@H](C)CCN3C(=O)c3c(-n4nccn4)ccc(OC)c3F)[nH]c2cc1OC [Ex. 4.45]	5.24	6.91
CSc1ccc2nc([C@@H]3CCCN3C(=O)c3nc(C)sc3-c3cccc(Cl)c3Cl)[nH]c2c1 [Ex. 1.36]	7.57	6.96
COc1cc2nc([C@]3(C)CCCN3C(=O)c3nc(C)ccc3-n3cccn3)[nH]c2cc1OC [Ex. 5.83]	6.98	6.37
COc1ccc2[nH]c([C@@H]3CCCN3C(=O)c3nc(C)ccc3-n3nccn3)nc2c1 [Ex. 1.173]	7.27	5.41
CSc1ccc2nc([C@@H]3CCCN3C(=O)c3cnc(C)nc3-c3cccc(Cl)c3)[nH]c2c1 [Ex. 1.51]	7.68	7.18
Cc1nc(C(=O)N2CCCC2c2nc3cc(C(F)(F)F)c(F)cc3[nH]2)c(-c2ccccc2)s1 (stereo not shown) [Ex. 1.135]	6.71	7.49

Structure (SMILES)	pIC50 [1]	pIC50 [2]
Cc1ccc(-n2nccn2)c(C(=O)N2CCC[C@@]2(C)c2nc3cc(C(F)(F)F)ccc3[nH]2)c1 [Ex. 5.9]	7.09	8.10
COc1cc2nc([C@@H]3[C@@H](C)CCN3C(=O)c3c(F)cccc3-n3nccn3)[nH]c2cc1OC [Ex. 4.42]	5.95	6.44
Cc1ccc(-n2cccn2)c(C(=O)N2CCC[C@@]2(C)c2nc3cc(C)c(C)cc3[nH]2)c1 [Ex. 5.59]	7.08	7.38
CO[C@H]1CN(C(=O)c2cc(C)ccc2-n2cccn2)C(C)(c2nc3c(C)c(Cl)ccc3[nH]2)C1 (stereo partly shown) [Ex. 3.53]	7.70	8.00
Cc1ccc(-n2cccn2)c(C(=O)N2CC[C@H](C)[C@H]2c2nc3c(C)cc(Cl)cc3[nH]2)c1 [Ex. 4.95]	5.93	7.55
Cc1cc2[nH]c([C@@H]3[C@@H](C)CCN3C(=O)c3c(F)cccc3-c3ccccc3)nc2cc1Cl [Ex. 4.112]	5.97	8.52
CO[C@@H]1C[C@@H](c2nc3ccc(Cl)c(C)c3[nH]2)N(C(=O)c2nc(C)sc2-c2ccc(C)c(C)c2)C1 [Ex. 3.34]	8.10	9.05
Cc1cc(C(=O)N2CCC[C@@]2(C)c2nc3c(C)cc(Br)cc3[nH]2)c(-c2ccccc2)cn1 [Ex. 5.310]	7.15	7.49
Cc1ccc(-c2cccc(F)c2)c(C(=O)N2CCC[C@@]2(C)c2nc3cc(C)c(C)cc3n2CCF)c1 [Ex. 7.35]	7.70	8.22
C=C1C[C@@H](c2nc3cccc(C)c3[nH]2)N(C(=O)c2nc(C)sc2-c2ccc(F)c(Br)c2)C1 [Ex. 6.110]	9.00	7.82
Cc1nc(C(=O)N2CCCC2c2nc3cc(OC(F)(F)F)ccc3[nH]2)c(-c2ccccc2)s1 (stereo not shown) [Ex. 1.132]	6.21	7.05
COc1ccccc1-c1sc(C)nc1C(=O)N1CC[C@H](C)[C@H]1c1nc2c(Cl)cccc2[nH]1 [Ex. 4.129]	5.56	7.46
COc1cccc(-c2nc(C(=O)N3CCC[C@@]3(C)c3nc4ccc(Cl)c(C)c4[nH]3)c(-c3ccc(F)cc3)s2)c1 [Ex. 5.231]	6.87	7.82
C[C@@]1(c2nc3cc(Cl)c(C(F)(F)F)cc3[nH]2)CCCN1C(=O)c1nc(-c2ccccc2)sc1-c1ccc(F)cc1 [Ex. 5.285]	6.34	7.49
Cc1cccc(-c2ccc(C)cc2C(=O)N2CCC[C@@]2(C)c2nc3cc(C)c(C)cc3n2C)c1 [Ex. 7.25]	7.74	7.82
Cc1nc(C(=O)N2CC[C@H](C)[C@H]2c2nc3c(C)cc(Cl)cc3[nH]2)c(-c2cc(F)cc(F)c2)s1 [Ex. 4.98]	5.89	8.40
Cc1nc(C(=O)N2CCC[C@@]2(C)c2nc3c(C)c(C)c(Br)cc3[nH]2)c(-c2ccc(C)c(C)c2)s1 [Ex. 5.273]	7.92	8.15
C=C1C[C@@H](c2nc3cc(Cl)c(C(F)(F)F)cc3[nH]2)N(C(=O)c2cc(OC)c(OC)cc2-n2nccn2)C1 [Ex. 6.186]	8.22	7.57
COc1cc2nc([C@@H]3[C@@H](C)CCN3C(=O)c3cc(C)ccc3-c3ncccn3)[nH]c2cc1OC [Ex. 4.179]	7.16	7.57
